Experiments:
ISC-enriched organoids [1] = assay: Primary screen, 384-well 2.5-D organoid differentiation (ENR+CD, 6 days): carbachol-induced lysozyme secretion (LYZ.S); type: cell-based, murine; details: for Dose.FC.LYZ.S: FC vs plate median; for Z.LYZ.S: standard z score; for SSMD.LYZ.S: strictly standardized mean difference
Description: (§1) High-throughput screening.

ISC-enriched organoids [2] = assay: Primary screen, 384-well 2.5-D organoid differentiation (ENR+CD, 6 days): basal lysozyme secretion (LYZ.NS); type: cell-based, murine; details: for Dose.FC.LYZ.NS: FC vs plate median; for SSMD.LYZ.NS: strictly standardized mean difference
Description: as §1

ISC-enriched organoids [3] = assay: Primary screen, 384-well 2.5-D organoid differentiation (ENR+CD, 6 days, Target Selective Inhibitor Library, vs whole-plate median): ATP (CellTiter-Glo 3D, CTG); details: for Dose.FC.CTG: FC vs plate median; for SSMD.CTG: strictly standardized mean difference
[4] = primary screen, dose 0.08 uM, ENR+CD 6 days
[5] = primary screen, dose 0.40 uM, ENR+CD 6 days
[6] = primary screen, dose 2.00 uM, ENR+CD 6 days
[7] = primary screen, dose 10.00 uM, ENR+CD 6 days
[8] = primary screen, dose 0.08 uM, standard z score of FC
[9] = primary screen, dose 0.40 uM, standard z score of FC
[10] = primary screen, dose 2.00 uM, standard z score of FC
[11] = primary screen, dose 10.00 uM, standard z score of FC
[12] = primary screen, 3rd of the 4 dose lines of the treatment (dose not given)
[13] = primary screen, 4th of the 4 dose lines of the treatment (dose not given)
[14] = Dose 0.08 uM, primary screen, standard z score
[15] = Dose 0.40 uM, primary screen, standard z score
[16] = Dose 2.00 uM, primary screen, standard z score
[17] = Dose 10.00 uM, primary screen, standard z score
[18] = Dose 0.08 uM, standard z score of FC
[19] = Dose 0.40 uM, standard z score of FC
[20] = Dose 2.00 uM, standard z score of FC
[21] = Dose 10.00 uM, standard z score of FC

**Q.** With `CN(C)C(=O)c1ccc(S(=O)(=O)c2ccc(NC(=O)[C@@](C)(O)C(F)(F)F)c(Cl)c2)cc1` [AZD7545] as the molecule, how does the Dose.FC.LYZ.S (ISC-enriched organoids [1]; [4]) read?
**A.** 0.111 log 2 fold change

**Q.** And the Dose.FC.LYZ.S (ISC-enriched organoids [1]; [5])?
**A.** −0.017 log 2 fold change

**Q.** And the Dose.FC.LYZ.S (ISC-enriched organoids [1]; [6])?
**A.** −0.148 log 2 fold change

**Q.** And the Dose.FC.LYZ.S (ISC-enriched organoids [1]; [7])?
**A.** −0.104 log 2 fold change

**Q.** And the Dose.FC.LYZ.NS (ISC-enriched organoids [2]; [4])?
**A.** 0.087 log 2 fold change

**Q.** What about the Z.LYZ.NS (ISC-enriched organoids [2]; [8]) of the same molecule?
**A.** 0.758

**Q.** What about the Dose.FC.LYZ.NS (ISC-enriched organoids [2]; [5]) of the same molecule?
**A.** −0.028 log 2 fold change

**Q.** And the Z.LYZ.NS (ISC-enriched organoids [2]; [9])?
**A.** −0.245

**Q.** What about the Dose.FC.LYZ.NS (ISC-enriched organoids [2]; [6]) of the same molecule?
**A.** −0.018 log 2 fold change

**Q.** And the Z.LYZ.NS (ISC-enriched organoids [2]; [10])?
**A.** −0.155

**Q.** And the Dose.FC.LYZ.NS (ISC-enriched organoids [2]; [7])?
**A.** −0.051 log 2 fold change

**Q.** And the Z.LYZ.NS (ISC-enriched organoids [2]; [11])?
**A.** −0.441

**Q.** And the Dose.FC.CTG (ISC-enriched organoids [3]; [4])?
**A.** −0.334 log 2 fold change

**Q.** What about the Z.CTG (ISC-enriched organoids [3]; [8]) of the same molecule?
**A.** −0.798

**Q.** What about the Dose.FC.CTG (ISC-enriched organoids [3]; [5]) of the same molecule?
**A.** −0.158 log 2 fold change

**Q.** And the Z.CTG (ISC-enriched organoids [3]; [9])?
**A.** −0.378

**Q.** And the Dose.FC.CTG (ISC-enriched organoids [3]; [6])?
**A.** −0.255 log 2 fold change

**Q.** What about the Z.CTG (ISC-enriched organoids [3]; [10]) of the same molecule?
**A.** −0.608

**Q.** What about the Dose.FC.CTG (ISC-enriched organoids [3]; [7]) of the same molecule?
**A.** −0.350 log 2 fold change

**Q.** What about the Z.CTG (ISC-enriched organoids [3]; [11]) of the same molecule?
**A.** −0.836

**Q.** Which results are given for `Cn1cc(/C=C2\C(=O)Nc3cccnc32)c2ccccc21` [GW441756]?
**A.** Dose.FC.LYZ.S (ISC-enriched organoids [1]; Dose 0.08 uM, primary screen): 0.075 log 2 fold change; Dose.FC.LYZ.S (ISC-enriched organoids [1]; Dose 0.40 uM, primary screen): 0.196 log 2 fold change; Dose.FC.LYZ.S (ISC-enriched organoids [1]; Dose 2.00 uM, primary screen): 0.125 log 2 fold change; Dose.FC.LYZ.S (ISC-enriched organoids [1]; Dose 10.00 uM, primary screen): 0.071 log 2 fold change; Z.LYZ.S (ISC-enriched organoids [1]; [12]): 0.806; Z.LYZ.S (ISC-enriched organoids [1]; [13]): 0.458; SSMD.LYZ.S (ISC-enriched organoids [1]; [12]): 0.911; SSMD.LYZ.S (ISC-enriched organoids [1]; [13]): 0.449; Dose.FC.LYZ.NS (ISC-enriched organoids [2]; Dose 0.08 uM, primary screen): 0.046 log 2 fold change; Z.LYZ.NS (ISC-enriched organoids [2]; [14]): 0.399; Dose.FC.LYZ.NS (ISC-enriched organoids [2]; Dose 0.40 uM, primary screen): 0.061 log 2 fold change; Z.LYZ.NS (ISC-enriched organoids [2]; [15]): 0.529; Dose.FC.LYZ.NS (ISC-enriched organoids [2]; Dose 2.00 uM, primary screen): 0.117 log 2 fold change; Z.LYZ.NS (ISC-enriched organoids [2]; [16]): 1.023; Dose.FC.LYZ.NS (ISC-enriched organoids [2]; Dose 10.00 uM, primary screen): 0.088 log 2 fold change; Z.LYZ.NS (ISC-enriched organoids [2]; [17]): 0.763; SSMD.LYZ.NS (ISC-enriched organoids [2]; [12]): 1.215; SSMD.LYZ.NS (ISC-enriched organoids [2]; [13]): 0.357; Dose.FC.CTG (ISC-enriched organoids [3]; Dose 0.08 uM, primary screen): 0.048 log 2 fold change; Z.CTG (ISC-enriched organoids [3]; [14]): 0.114; Dose.FC.CTG (ISC-enriched organoids [3]; Dose 0.40 uM, primary screen): −0.105 log 2 fold change; Z.CTG (ISC-enriched organoids [3]; [15]): −0.252; Dose.FC.CTG (ISC-enriched organoids [3]; Dose 2.00 uM, primary screen): 0.152 log 2 fold change; Z.CTG (ISC-enriched organoids [3]; [16]): 0.364; Dose.FC.CTG (ISC-enriched organoids [3]; Dose 10.00 uM, primary screen): −0.113 log 2 fold change; Z.CTG (ISC-enriched organoids [3]; [17]): −0.270; SSMD.CTG (ISC-enriched organoids [3]; [12]): 0.468; SSMD.CTG (ISC-enriched organoids [3]; [13]): −0.350

**Q.** Which results are given for `CC(C)C[C@H](NC(=O)[C@@H](NC(=O)c1cccc(-c2ccccc2)n1)[C@@H](C)O)B(O)O` [CEP-18770 (Delanzomib)]?
**A.** Dose.FC.LYZ.S (ISC-enriched organoids [1]; Dose 0.08 uM, ENR+CD, 6 days): −0.179 log 2 fold change; Dose.FC.LYZ.S (ISC-enriched organoids [1]; Dose 0.40 uM, ENR+CD, 6 days): −0.159 log 2 fold change; Dose.FC.LYZ.S (ISC-enriched organoids [1]; Dose 2.00 uM, ENR+CD, 6 days): −0.180 log 2 fold change; Dose.FC.LYZ.S (ISC-enriched organoids [1]; Dose 10.00 uM, ENR+CD, 6 days): −0.149 log 2 fold change; Dose.FC.LYZ.NS (ISC-enriched organoids [2]; Dose 0.08 uM, ENR+CD, 6 days): −0.108 log 2 fold change; Z.LYZ.NS (ISC-enriched organoids [2]; [18]): −0.937; Dose.FC.LYZ.NS (ISC-enriched organoids [2]; Dose 0.40 uM, ENR+CD, 6 days): −0.076 log 2 fold change; Z.LYZ.NS (ISC-enriched organoids [2]; [19]): −0.664; Dose.FC.LYZ.NS (ISC-enriched organoids [2]; Dose 2.00 uM, ENR+CD, 6 days): −0.063 log 2 fold change; Z.LYZ.NS (ISC-enriched organoids [2]; [20]): −0.546; Dose.FC.LYZ.NS (ISC-enriched organoids [2]; Dose 10.00 uM, ENR+CD, 6 days): −0.035 log 2 fold change; Z.LYZ.NS (ISC-enriched organoids [2]; [21]): −0.308; Dose.FC.CTG (ISC-enriched organoids [3]; Dose 0.08 uM, ENR+CD, 6 days): −0.953 log 2 fold change; Z.CTG (ISC-enriched organoids [3]; [18]): −2.276; Dose.FC.CTG (ISC-enriched organoids [3]; Dose 0.40 uM, ENR+CD, 6 days): −1.642 log 2 fold change; Z.CTG (ISC-enriched organoids [3]; [19]): −3.923; Dose.FC.CTG (ISC-enriched organoids [3]; Dose 2.00 uM, ENR+CD, 6 days): −0.990 log 2 fold change; Z.CTG (ISC-enriched organoids [3]; [20]): −2.364; Dose.FC.CTG (ISC-enriched organoids [3]; Dose 10.00 uM, ENR+CD, 6 days): −1.148 log 2 fold change; Z.CTG (ISC-enriched organoids [3]; [21]): −2.742

**Q.** For `CC[C@@H]1/C=C/C=C/C[C@H](C)[C@H](O)[C@](C)(O)C(=O)[C@H](C)[C@@H](O)[C@H](C)C(=O)[C@H](C)[C@@H](O)[C@H](C)/C=C/C(=O)O[C@H]2[C@@H](C)[C@@H](CC1)O[C@@]1(CC[C@@H](C)[C@@H](C[C@H](C)O)O1)[C@@H]2C` [Oligomycin A], which Dose.FC.LYZ.S (ISC-enriched organoids [1]; Dose 0.08 uM, primary screen) is on record?
**A.** −0.243 log 2 fold change

**Q.** And the Dose.FC.LYZ.S (ISC-enriched organoids [1]; Dose 0.40 uM, primary screen)?
**A.** −0.274 log 2 fold change

**Q.** What about the Dose.FC.LYZ.S (ISC-enriched organoids [1]; Dose 2.00 uM, primary screen) of the same molecule?
**A.** −0.269 log 2 fold change

**Q.** What about the Dose.FC.LYZ.S (ISC-enriched organoids [1]; Dose 10.00 uM, primary screen) of the same molecule?
**A.** −0.288 log 2 fold change

**Q.** What about the Dose.FC.LYZ.NS (ISC-enriched organoids [2]; Dose 0.08 uM, primary screen) of the same molecule?
**A.** −0.204 log 2 fold change

**Q.** And the Z.LYZ.NS (ISC-enriched organoids [2]; [18])?
**A.** −1.778

**Q.** What about the Dose.FC.LYZ.NS (ISC-enriched organoids [2]; Dose 0.40 uM, primary screen) of the same molecule?
**A.** −0.231 log 2 fold change

**Q.** And the Z.LYZ.NS (ISC-enriched organoids [2]; [19])?
**A.** −2.013

**Q.** And the Dose.FC.LYZ.NS (ISC-enriched organoids [2]; Dose 2.00 uM, primary screen)?
**A.** −0.213 log 2 fold change

**Q.** What about the Z.LYZ.NS (ISC-enriched organoids [2]; [20]) of the same molecule?
**A.** −1.857

**Q.** And the Dose.FC.LYZ.NS (ISC-enriched organoids [2]; Dose 10.00 uM, primary screen)?
**A.** −0.223 log 2 fold change

**Q.** What about the Z.LYZ.NS (ISC-enriched organoids [2]; [21]) of the same molecule?
**A.** −1.943

**Q.** What about the Dose.FC.CTG (ISC-enriched organoids [3]; Dose 0.08 uM, primary screen) of the same molecule?
**A.** −0.662 log 2 fold change

**Q.** And the Z.CTG (ISC-enriched organoids [3]; [18])?
**A.** −1.581

**Q.** And the Dose.FC.CTG (ISC-enriched organoids [3]; Dose 0.40 uM, primary screen)?
**A.** −0.706 log 2 fold change

**Q.** What about the Z.CTG (ISC-enriched organoids [3]; [19]) of the same molecule?
**A.** −1.685

**Q.** What about the Dose.FC.CTG (ISC-enriched organoids [3]; Dose 2.00 uM, primary screen) of the same molecule?
**A.** −0.946 log 2 fold change

**Q.** And the Z.CTG (ISC-enriched organoids [3]; [20])?
**A.** −2.261

**Q.** And the Dose.FC.CTG (ISC-enriched organoids [3]; Dose 10.00 uM, primary screen)?
**A.** −1.244 log 2 fold change

**Q.** And the Z.CTG (ISC-enriched organoids [3]; [21])?
**A.** −2.972

From US20230398130A1, “METHODS AND COMPOSITIONS FOR DIFFERENTIATING STEM CELLS” (Massachusetts Institute of Technology, priority 2020, published 2023)
